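1) Cells in 96-well plates. 2) Compound, 48 h, 5 concentrations. 3) Linear interpolation between surrounding doses. 4) Unreached endpoint = highest concentration. GI50 = concentration required for 50% inhibition of growth. TGI marks complete inhibition of growth.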
How the values were obtained:
Experiment in all cases: NCI tumour cell line growth inhibition, 48 h
SF-268 CNS = test system: SF-268 CNS
MALME-3M melanoma = test system: MALME-3M melanoma
SK-MEL-5 melanoma = test system: SK-MEL-5 melanoma
HS 578T breast = test system: HS 578T breast
BT-549 breast = test system: BT-549 breast
NCI/ADR-RES ovarian = test system: NCI/ADR-RES ovarian
DU-145 prostate = test system: DU-145 prostate
RPMI-8226 leukemia = test system: RPMI-8226 leukemia

SMILES	TGI (SF-268 CNS)	TGI (MALME-3M melanoma)	TGI (SK-MEL-5 melanoma)	GI50 (HS 578T breast)	TGI (HS 578T breast)	GI50 (BT-549 breast)	TGI (BT-549 breast)	GI50 (SF-268 CNS)	GI50 (NCI/ADR-RES ovarian)	TGI (NCI/ADR-RES ovarian)	GI50 (DU-145 prostate)	TGI (DU-145 prostate)	GI50 (SK-MEL-5 melanoma)	GI50 (RPMI-8226 leukemia)	TGI (RPMI-8226 leukemia)	GI50 (MALME-3M melanoma)
O=C(N/C(=C\c1cccc([N+](=O)[O-])c1)c1nc2ccc([N+](=O)[O-])cc2[nH]1)c1ccccc1	> 100 µM	> 100 µM	43.7 µM													
Cc1cc(-c2cnn3c(NCC4CC(C)(O)C4)cc(Oc4cccnc4)nc23)ccc1C(=O)NC1CC1 (centres undefined)	> 100 µM		> 100 µM	4.19 µM	> 100 µM	> 100 µM	> 100 µM	8.72 µM	> 100 µM	> 100 µM	2.26 µM	> 100 µM	2.22 µM			
Nc1nccc(-c2c(-c3ccc(F)cc3)ncn2C2CCC(O)CC2)n1 (centres undefined)	> 25 µM	> 25 µM	> 25 µM	8.21 µM	> 25 µM	11.7 µM	> 25 µM	10.2 µM	> 18 µM	> 25 µM	11.2 µM	> 25 µM	3.94 µM	11.7 µM	> 25 µM	6.72 µM
CCc1ccccc1NC(=O)C1=C(C)NC(C)=C(C(=O)Nc2ccccc2CC)C1c1ccc2c(c1)OCO2	> 100 µM	99 µM	> 100 µM												49.5 µM	
CC1CN1C(=O)NCCCCCCNC(=O)N1CC1C (centres undefined)	> 100 µM	> 100 µM	> 100 µM		> 100 µM		> 100 µM			> 100 µM		> 100 µM			> 100 µM	
N#CSC1CCCCNC1=O (centres undefined)	26.2 µM	31.4 µM			50.4 µM		21.5 µM			29.1 µM		32.8 µM			29.3 µM	
COc1cc(Nc2nc3ccccc3nc2-c2cccs2)cc(OC)c1OC	> 100 µM	> 100 µM													> 100 µM	
CC/C=C\C[C@H](F)C/C=C1/C(=O)C=C[C@@H]1C/C=C\CCCC(=O)O	22.4 µM	23.2 µM	9.18 µM	13 µM	> 32.5 µM	6.07 µM	12.5 µM	6.55 µM	6.78 µM	> 32.5 µM	8.02 µM	32.4 µM	4.86 µM	1.22 µM	30.8 µM	8.08 µM
O=C1Nc2ccccc2C1(c1ccc(O)cc1)c1ccc(O)cc1	77.9 µM	92 µM	29.3 µM	0.0932 µM	0.298 µM	0.0625 µM	0.541 µM	24.4 µM	0.982 µM	> 100 µM	21 µM	54.3 µM	14.7 µM	25.8 µM	70.9 µM	28.5 µM
CC1(C)OC2=C(CC1Br)C(=O)C(=O)c1ccccc12 (centres undefined)	3.32 µM	3.52 µM	2.89 µM	2.65 µM	7.69 µM	1.85 µM	3.34 µM	1.75 µM	2.26 µM	5.22 µM	1.67 µM	3.05 µM	1.53 µM	2.65 µM	6.82 µM	1.8 µM
Cc1ccc2c(c1)Sc1c(ccc3ccccc13)N2	> 100 µM	> 100 µM	> 100 µM			28.5 µM	> 100 µM	69.2 µM	41.9 µM	> 100 µM	> 100 µM	> 100 µM	12.4 µM	13.4 µM	> 100 µM	> 100 µM
C[C@@H]1OC(=O)N2CCCC(=C3SCCCS3)C12 (some centres undefined)	> 100 µM	> 100 µM													> 100 µM	
CS(=O)(=O)c1ccc(-n2nc(C(F)(F)F)cc2OC2CCCC2)cc1	> 100 µM		36.2 µM	> 100 µM	> 100 µM	28.5 µM	73 µM	36.1 µM	25 µM	81.8 µM	38.9 µM	> 100 µM	19.5 µM	34.8 µM	> 100 µM	
CCN(CC)C(c1ccc(N(C)C)cc1)C(c1ccc(N(C)C)cc1)N(CC)CC (centres undefined)	> 73 µM	50.3 µM	> 73 µM												> 73 µM	
Nc1cccc(S(=O)(=O)NCC(=O)O)c1	> 100 µM	> 100 µM	> 100 µM												> 100 µM	
Nc1nc(N(Cc2ccccc2)c2ccccc2)c2cn[nH]c2n1	> 100 µM	> 100 µM	> 100 µM	2.7 µM	7.91 µM	3.95 µM	> 100 µM	4.21 µM			4.57 µM	> 100 µM	3.04 µM	1.68 µM	> 100 µM	4.23 µM
O=c1cc(-c2ccccc2)oc2cc(OC/C(=N/O)c3ccccc3)ccc12	31 µM		> 50 µM			12.4 µM	27.8 µM	11.5 µM	19.8 µM	> 50 µM	25.1 µM	> 50 µM	20.7 µM	6.69 µM	> 50 µM	
NC1=NC(c2ccccc2)CC(c2cc(Cl)ccc2O)=N1 (centres undefined)	30.8 µM	38 µM													41 µM	
CC(C)(C)c1cc(CCC(=O)Nc2ccc(Cl)cc2)nc(NC#N)n1	> 100 µM															
CCOC(=S)SSSC(=S)OCC	> 100 µM	> 100 µM	> 100 µM		> 100 µM					> 100 µM		> 100 µM			61.1 µM	
O=C(CC1(O)C(=O)Nc2ccccc21)c1ccncc1 (centres undefined)	> 100 µM		> 100 µM												> 100 µM	
CCCC(=O)OCC1OC(n2cnc3c(=S)nc[nH]c32)C(OC(=O)CCC)C1OC(=O)CCC (centres undefined)	> 100 µM	> 100 µM	62.9 µM	> 100 µM	> 100 µM	14.3 µM	> 100 µM	5.95 µM	8.15 µM	> 100 µM	3.06 µM	> 100 µM	5.24 µM			38.5 µM
